Experimental data reported in the METLIN SMRT retention time set (Domingo-Almenara et al. 2019).

Experiment: gradient 5% acetonitrile 3 min, to 50% in 2 min, to 85% in 15 min, held 3 min, 100 µL/min
Settings: column: Zorbax Extend-C18 2.1 x 50 mm; eluents: water / acetonitrile, 0.1% formic acid
Procedure, shortened: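 Pure standards were run in mixtures of ~100 molecules by HPLC coupled to a quadrupole time-of-flight mass spectrometer. The column was a Zorbax Extend-C18 (2.1 × 50 mm, 1.8 μm) at 100 μL/min, with water and acetonitrile each containing 0.1% formic acid, in positive and negative ionization mode. Dead and dwell volumes were 40 μL and 900 μL. Retention time was taken from computationally picked adduct peaks, each manually inspected, with data collected over 3 months.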

Compound | RP-LC retention time
CCc1cccc(NC(=O)Cc2csc3nc(-c4ccc(C)c(C)c4)cn23)c1 | 962 s
O=C(NCCN1CCOCC1)C1CCN(c2ccc3nnc(-c4ccccc4F)n3n2)CC1 | 693 s
CCC(=O)N1CCc2cc(N3CC(C(=O)Nc4cccc(C(C)=O)c4)CC3=O)ccc21 (configuration not stated) | 696 s
CC(Oc1ccccc1F)C(=O)Nc1ccc(-c2nc(-c3ccccc3)no2)cc1 (configuration not stated) | 1260 s
CCNC(=O)N1CCCC1c1nc(-c2ccccc2OC)no1 (configuration not stated) | 698 s
Oc1ccccc1-c1nc2ccc(Cl)cn2c1Nc1ccc2c(c1)OCCO2 | 879 s
Cc1ccc(-c2cc3c(=O)n(Cc4nc(-c5ccc(F)cc5)no4)ccn3n2)cc1 | 1330 s
Cn1cccc1C(=O)C(=O)Nc1cccc(Br)c1 | 1040 s
CCOc1ccc(N2C(=O)CN(CCc3ccccc3F)[C@H]3CS(=O)(=O)C[C@H]32)cc1 | 840 s
COc1cccc(-n2c(=O)c(C(=O)NC(C)c3ccccc3)c(O)c3cccnc32)c1 (configuration not stated) | 1180 s
Cc1ccc(Sc2nccnc2N2CCC(C(=O)N3CCN(c4ccc(C)cc4)CC3)CC2)cc1 | 1290 s
CCCCNc1nc2c(c(=O)n(C)c(=O)n2C)n1CC(O)COc1ccccc1 (configuration not stated) | 882 s
O=C(CCSc1ccc(Cl)cc1)Nc1nc(-c2ccccc2)cs1 | 1170 s
Cc1ccc(Cn2cc(-c3ccncc3)cc2C(=O)NCc2ccc(C)o2)cc1 | 734 s
O=C(NCc1ccncc1)C1CCN(C(=O)c2ncn3c2COC(c2ccc(Cl)cc2)C3)CC1 (configuration not stated) | 645 s
CN(C)C(CNC(=O)c1cc(=O)c2ccccc2o1)c1ccccc1Cl (configuration not stated) | 650 s
CCOc1ccc(-n2c(CN3CCN(C(=O)NC(C)CC)CC3)nc3cccnc32)cc1 (configuration not stated) | 650 s
O=C(c1nnc(-c2ccc(S(=O)(=O)N3CCCC3)cc2)o1)N1CCC(Cc2ccccc2)CC1 | 1130 s
CCc1nn2c(CNC(=O)c3ccc(C)c(C)c3)c(-c3ccccc3)nc2s1 | 983 s
CCC(C)NC(=O)C1CCN(c2cnn(Cc3ccccc3)c(=O)c2)CC1 (configuration not stated) | 721 s
O=C(c1cc2c(s1)-c1ccccc1S(=O)(=O)C2)N1CCN(c2ccccn2)CC1 | 605 s
Clc1ccc(C(Cn2ccnc2)OCc2c(Cl)cccc2Cl)c(Cl)c1 (configuration not stated) | 929 s
CCCc1nc2ccc(CCC(=O)Nc3cc(OC)cc(OC)c3)cc2[nH]1 | 657 s
CC1=C(c2ccc(C)c(C)c2)S(=O)(=O)N=C1N1CCCN(C(=O)C2CCCC2)CC1 | 912 s
O=C([C@@H]1CC(F)(F)CN1C(=O)CCn1c(=O)oc2ccccc21)N1CCCC1 | 718 s

Compound | RP-LC retention time
Cn1cc(C2c3nccn3CCCN2S(=O)(=O)c2cccc(C(F)(F)F)c2)cn1 (configuration not stated) | 656 s
CCCn1cc(S(=O)(=O)Nc2cccc(Cl)c2)c2cccnc21 | 942 s
CCc1nc2cc(-c3noc(-c4ccc5ccccc5n4)n3)ccc2o1 | 1110 s
Clc1ccc(-c2noc(Cc3nnc(-c4cccc(Br)c4)o3)n2)cc1 | 1210 s
Cc1ccc(NC(=O)N2CCc3nc[nH]c3C2)c(Cl)c1 | 585 s
Cc1nc2ccn(Cc3cccs3)c(=O)c2cc1C(=O)N1CCOCC1 | 648 s
CC(NC(=O)c1ccsc1)C(=O)Nc1nc2ccccc2[nH]1 (configuration not stated) | 609 s
O=C(NCc1ccco1)C1CCN(c2cnn(Cc3ccccc3)c(=O)c2)CC1 | 723 s
COc1ccc(NC(=O)C2CCN(c3cc(N4CCCCC4)ncn3)CC2)cc1OC | 645 s
CCOC(=O)Cn1nc(-n2ccnc2)ccc1=O | 503 s
CN(Cc1nc2cc(C(=O)N3CCCC3)ccc2n1C)C(=O)Nc1ccc(F)cc1F | 607 s
CC(=O)Nc1ccc(S(=O)(=O)N2CCC(CN3CCC(C)CC3)CC2)cc1 | 608 s
CCN1C(=O)CCc2cc(NC(=O)Cc3ccccc3Cl)ccc21 | 795 s
CCN1C(=O)c2cccnc2Sc2cc(C(=O)N3CCC(C)CC3)ccc21 | 798 s
CC(=O)N1CCc2nn(C)c(=O)n2CC1 | 543 s
CCN1CCN(CCCNC(=O)c2ccc(CS(=O)c3ccc(Cl)cc3)o2)CC1 (configuration not stated) | 569 s
Cc1csc(-c2cc(S(=O)(=O)Nc3ccc(F)cc3Cl)cn2CC(=O)N2CCCC2)n1 | 944 s
O=C(C1=NN(Cc2ccccc2Cl)c2ccccc2S1(=O)=O)N1CCOCC1 | 873 s
C=C1C(=O)OC2CC(C)C3(O)CCC(=O)C3(C)CC12 (configuration not stated) | 775 s
COc1ccc(NC(=O)Cn2ccc3ccn(Cc4ccccc4)c3c2=O)cc1OC | 859 s
Cc1cccc(N2CCN(C(=O)C3CCN(Cc4cn(C)c5ccc(Cl)cc45)CC3)CC2)c1C | 878 s
O=C(Nc1cccc(OC(F)(F)F)c1)C1CCCN(c2nnc3ccccn23)C1 (configuration not stated) | 784 s
O=S(=O)(NCc1cccnc1)c1ccc(Cl)cc1 | 566 s
O=C(NCc1ccccn1)c1cccc(N2CCNC(c3ccccc3)C2)n1 (configuration not stated) | 564 s
COc1cccc(C(=O)NCc2ccc3[nH]c4c(c3c2)CCCC4)c1OC | 910 s

Results, then the compound that gave them:

RP-LC retention time | Compound
969 s | COc1cc(Cl)c(NC(=O)C(=O)c2ccc[nH]2)c(OC)c1
580 s | Cc1cc(-c2csc(S(=O)(=O)NCCCN3CCN(C)CC3)c2)on1
699 s | COc1ccc(CNS(=O)(=O)c2ccc3c(c2)CCCC(=O)N3)cc1
854 s | O=C(c1ccccc1Cl)N1CCN(c2cc(-c3ccc(Cl)cc3)[nH]n2)CC1
746 s | Cc1cc2c(F)c(Oc3ncnn4cc(OC[C@@H](C)OC(=O)[C@H](C)N)c(C)c34)ccc2[nH]1
1250 s | Cc1c(C(=O)N2CCC(C)CC2)cnn1-c1ccc(-c2nc(C(C)(C)C)no2)cn1
614 s | Cc1ccc(CN2CCN(CC(=O)NC3CCN(Cc4ccccc4)CC3)C(=O)C2=O)cc1
1050 s | O=c1c2cc(-c3ccc(F)cc3)nn2ccn1Cc1noc(CN2CCc3ccccc32)n1
701 s | CC(C)n1c(N2CCN(C(=O)c3ccc4nccnc4c3)CC2)cc(=O)n(C(C)C)c1=O
939 s | Cc1cc(C(=O)NC(C)C2CC3CCC2C3)c2c(C)noc2n1 (configuration not stated)
1060 s | COc1ccccc1-c1noc(Cn2cnc3c(cnn3-c3ccc(Br)cc3)c2=O)n1
787 s | COC(=O)C1=CN(c2cccc(C#N)c2)c2ccc(F)cc2S1(=O)=O
825 s | N#Cc1ccc(Cl)cc1NC(=O)C(=O)NCC(O)C1CCCCC1 (configuration not stated)
1200 s | COc1ccc(CNC(=O)C2CCCN(c3nc4c(s3)c(C)nn4-c3ccc(Cl)cc3)C2)cc1 (configuration not stated)
886 s | CC(C)Cc1nc2nccc(-c3ccc(F)cc3)n2n1
554 s | COc1cc(CN2C[C@@H](CO)[C@H](N(C)C)C2)ccc1OC(C)C
859 s | Cc1ccc(C)c(N2CCN(c3ccnc(SCC(=O)NCc4ccc5c(c4)OCO5)n3)CC2)c1
1000 s | COc1ccc(OC)c(Nc2c(-c3ccc(Br)cc3)nc3cnccn23)c1
1020 s | Cc1cccc(-n2c(N3CCCC(C(=O)NCc4ccc(C)c(C)c4)C3)nc3ccsc3c2=O)c1 (configuration not stated)

RP-LC retention time | Compound
719 s | Cc1ccc(C)c2sc(N(C)CC(=O)NCCSc3nncn3C)nc12
915 s | CC(C)c1noc(-c2ccc(-n3cnc(C(=O)NC4CCCC4)c3)nc2)n1
864 s | Cc1ccc(CNC(=O)C2CCCN(S(=O)(=O)c3cc(-c4noc(C)n4)cs3)C2)o1 (configuration not stated)
739 s | O=C(CCc1ccccc1)NC1CCN(c2nnc3ccc(Cl)cn23)CC1
989 s | Cc1ccc(N2CC(c3noc(C4(c5ccccc5)CC4)n3)CC2=O)cc1 (configuration not stated)
563 s | CCNC(=O)c1cc(N2CCOCC2)nc2ccccc12
678 s | Cc1ccc(NC(=O)Cn2c(C)nc3cc4c(cc32)OCCO4)cc1C
772 s | COc1cccc(N2CCN(C(=O)c3[nH]c(C)c(S(=O)(=O)N4CCOCC4)c3C)CC2)c1
867 s | Cc1ccc(Cl)cc1N1CCN(C(=O)CN2C(=O)CN(C)C(=O)c3ccccc32)CC1
743 s | COc1ccccc1CNC1=NCCNC12CCN(S(=O)(=O)c1ccc(C)cc1)CC2
787 s | COCCN(CC(=O)N1CCc2sccc2C1COc1ccccc1)C(=O)COC (configuration not stated)
593 s | COc1ccc(CCC(=O)NCCCOc2cccc3cccnc23)cc1
833 s | Cc1ccccc1Cn1c(CN2CCC(C(=O)NC(C)Cc3ccco3)CC2)cc2ccccc21 (configuration not stated)
573 s | COCC(=O)Nc1ccc2nc(N3CCN(Cc4ccccc4OC)CC3)cc(C(=O)O)c2c1
1090 s | Cc1ccc(-c2noc(Cn3cnc4c(cnn4-c4ccccc4)c3=O)n2)cc1
638 s | CSc1ccc(CNC(=O)C2CCN(c3ccc(N4CCOCC4)nn3)CC2)cc1
830 s | COc1ccc(-c2noc(C3CCCN3C(=O)Nc3ccc(C)cc3)n2)cc1 (configuration not stated)
685 s | CCCCN1CCN(C(=O)C2=NN(c3ccc(C)cc3)c3ncccc3S2(=O)=O)CC1
